According to ChEMBL document CHEMBL1143953, “Novel 2-phenylquinolin-7-yl-derived imidazo[1,5-a]pyrazines as potent insulin-like growth factor-I receptor (IGF-IR) inhibitors” (Bioorg Med Chem, 2008):

Molecular target: Cytochrome P450 3A4 (Homo sapiens, UniProt P08684)
Experiment: Inhibition of CYP3A4
Type: ADME

Cytochrome P450 3A4, sequence (P08684 whole entry): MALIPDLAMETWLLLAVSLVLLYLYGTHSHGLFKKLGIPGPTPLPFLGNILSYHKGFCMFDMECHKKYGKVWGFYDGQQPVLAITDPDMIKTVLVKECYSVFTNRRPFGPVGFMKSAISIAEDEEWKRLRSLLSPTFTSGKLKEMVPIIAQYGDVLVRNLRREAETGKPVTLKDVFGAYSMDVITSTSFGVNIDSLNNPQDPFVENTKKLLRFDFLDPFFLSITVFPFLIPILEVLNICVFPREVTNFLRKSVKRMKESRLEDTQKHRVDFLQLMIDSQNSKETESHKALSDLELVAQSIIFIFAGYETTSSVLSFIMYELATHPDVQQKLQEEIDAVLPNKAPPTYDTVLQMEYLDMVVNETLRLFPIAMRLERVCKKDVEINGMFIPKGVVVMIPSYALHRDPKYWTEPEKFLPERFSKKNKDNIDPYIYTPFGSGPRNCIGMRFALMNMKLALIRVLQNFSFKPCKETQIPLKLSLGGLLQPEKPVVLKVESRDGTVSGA

SMILES: Nc1nccn2c1c(-c1ccc3ccc(-c4ccccc4)nc3c1)nc2[C@H]1C[C@@H](N2CCC2)C1
- IC50: > 20 µM

SMILES: Nc1nccn2c1c(-c1ccc3ccc(-c4ccccc4)nc3c1)nc2[C@H]1C[C@@H](CN2CCOCC2)C1
- IC50: > 20 µM

SMILES: CN(C)C[C@H]1C[C@H](c2nc(-c3ccc4ccc(-c5ccccc5)nc4c3)c3c(N)nccn32)C1
- IC50: 15 µM
